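Grown in 96-well plates, cells were treated for 48 hours with each compound at five concentrations. Insufficient inhibition: endpoint recorded as highest concentration tested. Here, GI50 denotes the concentration required for 50% inhibition of growth. TGI: concentration producing complete growth inhibition.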

This test deals with MDA-MB-468 breast. In words: NCI-60 cell line screen, 48 h.
On to `COC(=O)[C@]12CC[C@@H](C)[C@H](C)[C@@H]1C1=CC[C@@H]3[C@@]4(C)C(C=O)=C[C@@](C)(COC(C)=O)[C@@H]4[C@H](O)C[C@@]3(C)[C@]1(C)CC2`, for which the GI50 was 2.04 µM and the TGI worked out at 4.4 µM.

Consider `CN1CCN(CC(=O)Nc2ccc3ncnc(Nc4ccc(Oc5cccc(C(F)(F)F)c5)c(Cl)c4)c3c2)CC1`, for which the GI50 is 1.16 µM and the TGI came to 2.66 µM.

For the compound `CC(CN)[C@@H]1CC[C@]2(CO)CC[C@]3(C)[C@H](CC[C@@H]4[C@@]5(C)CCC(NCCO)C(C)(C)[C@@H]5CC[C@]43C)[C@@H]12` (some centres undefined), the GI50 is 1.48 µM and the TGI came out at 3.08 µM.

Turning to `CS(=O)(=O)N1CCN(Cc2cc3nc(-c4cccc5[nH]ncc45)nc(N4CCOCC4)c3s2)CC1` (tested in a mixture with another compound), the GI50 was 0.109 µM and the TGI is 0.697 µM.

For `CCOC(=O)/C=C1\SC(=Nc2ccc(C#N)cc2)N(CCN2C(=O)/C(=C/C(=O)OCC)SC2=Nc2ccc(C#N)cc2)C1=O`, the GI50 was 3.1 µM and the TGI is 17.4 µM.

Regarding `COc1ccc(-c2cnc(-c3ccc(F)cc3)[nH]2)cc1`, the GI50 is 2.22 µM and the TGI was determined as 7 µM.

Turning to `CN(C)CCNC(=O)c1cccc2cc3ccccc3nc12`, the GI50 is 1.26 µM and the TGI was 4.21 µM.

With `Nc1ccc(C#Cc2cncnc2Nc2ccc(OCc3cccc(F)c3)c(Cl)c2)cc1`, the GI50 was 1.15 µM and the TGI came out at 9.24 µM.

Turning to `COc1ccc(/C=C(/C(=O)N2CCCC2)c2cc(OC)c(OC)c(OC)c2)cc1N`, the GI50 is 1.28 µM and the TGI was over 100 µM.

For the compound `NC1=NC(c2ccccc2)N=C(Nc2ccccc2)N1` (centres undefined), the GI50 was 44.4 µM and the TGI is over 100 µM.

For the compound `COc1ncc(-c2nc3c(n2C(C)C)[C@H](c2ccc(Cl)cc2)N(c2cc(Cl)cn(C)c2=O)C3=O)c(OC)n1`, the GI50 was 18.2 µM and the TGI amounted to 71.4 µM.

As for `CN1CCN(c2ccc(-c3cnc4c(-c5csc6ccccc56)cnn4c3)cc2)CC1`, the GI50 is over 15 µM and the TGI is over 15 µM.

For `O=C1/C(=C/c2ccccc2)SC(=Nc2ccccc2)N1Nc1ccccc1`, the GI50 is 14 µM and the TGI is over 100 µM.

`COC(=O)c1ccc(=O)c2nc3/c(=C/O)c(O)cc(=O)c3[nH]c12`: the GI50 was 0.937 µM and the TGI came to 48.5 µM.

In the case of `COC(=O)c1c2c(c(C)[n+]([O-])c1C)C(=O)C=C(NCc1cccc(OC)c1)C2=O`, the GI50 is 0.257 µM and the TGI turned out to be 0.797 µM.

For `O=C1C(Cl)=C(Nc2ccc3cn[nH]c3c2)C(=O)c2ccccc21`, the GI50 was 1.14 µM and the TGI turned out to be 2.4 µM.

`Nc1nc2ccc([C@@H]3Nc4ccc5[nH]ncc5c4[C@H]4[C@H]5CCC(C5)[C@H]43)cc2s1`: the GI50 was 0.403 µM and the TGI stood at 2.53 µM.

Consider `N#CC1C(=N)Cc2ccccc2-c2ccccc21` (centres undefined), for which the GI50 was 3.15 µM and the TGI was found to be 13.4 µM.

Take `Cn1ccc(=Nc2ccc(NC(=O)c3ccc(N=c4ccn(C)c5ccc([N+](=O)[O-])cc45)cc3)cc2)cc1`: the GI50 is 7.28 µM and the TGI is over 100 µM.

As to `COc1ccc2nc(NCCCNCCO)c3sc4ccc(F)cc4c(=O)c3c2c1`, the GI50 was 1.71 µM and the TGI is 3.28 µM.

Regarding `CC[N+](CC)=c1ccc2nc3c(cc(NCc4ccccc4)c4ccccc43)oc-2c1`, the GI50 is 0.134 µM and the TGI was determined as 1.07 µM.

For `O=C(Nc1cnn2ccc(N3CCC[C@@H]3c3cc(F)ccc3F)nc12)N1CC[C@H](O)C1`, the GI50 was over 100 µM and the TGI is over 100 µM.

As for `N#C/C(=C\c1ccc(Br)cc1)n1nnc2cccc(F)c21`, the GI50 was 0.327 µM and the TGI amounted to 1.15 µM.

On to `COc1ccc(C2NCCc3c2[nH]c2ccccc32)cc1CN1CCN(c2ccc(F)cc2)CC1` (centres undefined), for which the GI50 was 1.67 µM and the TGI amounted to 3.36 µM.

As for `COc1cc(NN=C(c2ccc(O)cc2)c2ccc(O)cc2)c([N+](=O)[O-])cc1[N+](=O)[O-]`, the GI50 is 12.5 µM and the TGI was determined as 25 µM.

`C=C(CNCCc1ccc(O)cc1)[C@@H]1CC[C@]2(CO)CC[C@]3(C)[C@H](CC[C@@H]4[C@@]5(C)CCC(=O)C(C)(C)[C@@H]5CC[C@]43C)[C@@H]12`: the GI50 is 1.53 µM and the TGI is 3.1 µM.

Take `CCCCCCCCOc1ccc(/C=N/Nc2cc(C)nc3ccc(Cl)cc23)cc1`: the GI50 was 1.79 µM and the TGI was 3.42 µM.

In the case of `Nc1ccn([C@H]2C[C@@H](O)[C@@H](CO)S2)c(=O)n1`, the GI50 was over 100 µM and the TGI was over 100 µM.

With `Nc1c(C(=O)c2cccc(OCCN3CCOCC3)c2)cnn1-c1ccc(F)cc1`, the GI50 was over 25 µM and the TGI was over 25 µM.

For the compound `Cc1ccc(S(=O)(=O)Oc2ccc3c4c(c(=O)oc3c2)CCCCC4)cc1`, the GI50 was 2.77 µM and the TGI is over 100 µM.

Consider `COc1cc2cc(Oc3ccc(NC(=O)Nc4ccccc4)cc3)c(C)nc2cc1OCCN1CCCCC1`, for which the GI50 was 5.64 µM and the TGI came out at 10.8 µM.

For the compound `Nc1nc2c(c3ncccc13)C(c1cccc(Cl)c1)Cc1ncccc1-2` (centres undefined), the GI50 is 1.61 µM and the TGI came to 22.7 µM.

On to `O=C(Oc1ccc([N+](=O)[O-])cc1)N1CCN(Cc2cccc(Oc3ccccc3)c2)CC1`, for which the GI50 is 19.1 µM and the TGI is over 100 µM.

For `CCNC(=O)Oc1ccc(/C(=C(/C)c2ccc(Cl)cc2)c2ccc(OCCN3CCCCCC3)cc2)cc1`, the GI50 is 1.44 µM and the TGI amounted to 3.07 µM.

With `C/C=C(\C)C(=O)O[C@@H]1C(O)[C@H]2OC(COC(=O)CCC(=O)CCCCCC[C@H](CCCCC)O[C@@H]3OC(C)[C@H](OC(C)=O)C(O)[C@H]3O2)[C@H]1OC(=O)/C=C/c1ccccc1` (some centres undefined), the GI50 is under 0.01 µM and the TGI worked out at 1.18 µM.

Turning to `C=C1C(=O)O[C@H]2[C@H]1CC/C(COC(=O)C(=O)c1c[nH]c3ccc(OC)cc13)=C\CC[C@@]1(C)O[C@@H]21`, the GI50 is 2.17 µM and the TGI amounted to 4.77 µM.

With `Cc1ccc(N=C2CSc3nnc(-c4csc5c4CCCC5)n3N2)cc1`, the GI50 is 0.142 µM and the TGI is over 50 µM.
